Test results as given in BindingDB's records for doi:10.1016/j.bioorg.2017.03.012 (Alexandria University, 2017).

How the values were obtained:
[1] = molecular target: T1, Prostaglandin G/H synthase 1 (Ovis aries, UniProt P05979); assay: In Vitro COX-1 and COX-2 Inhibitory Assay
T1 sequence (P05979 whole entry): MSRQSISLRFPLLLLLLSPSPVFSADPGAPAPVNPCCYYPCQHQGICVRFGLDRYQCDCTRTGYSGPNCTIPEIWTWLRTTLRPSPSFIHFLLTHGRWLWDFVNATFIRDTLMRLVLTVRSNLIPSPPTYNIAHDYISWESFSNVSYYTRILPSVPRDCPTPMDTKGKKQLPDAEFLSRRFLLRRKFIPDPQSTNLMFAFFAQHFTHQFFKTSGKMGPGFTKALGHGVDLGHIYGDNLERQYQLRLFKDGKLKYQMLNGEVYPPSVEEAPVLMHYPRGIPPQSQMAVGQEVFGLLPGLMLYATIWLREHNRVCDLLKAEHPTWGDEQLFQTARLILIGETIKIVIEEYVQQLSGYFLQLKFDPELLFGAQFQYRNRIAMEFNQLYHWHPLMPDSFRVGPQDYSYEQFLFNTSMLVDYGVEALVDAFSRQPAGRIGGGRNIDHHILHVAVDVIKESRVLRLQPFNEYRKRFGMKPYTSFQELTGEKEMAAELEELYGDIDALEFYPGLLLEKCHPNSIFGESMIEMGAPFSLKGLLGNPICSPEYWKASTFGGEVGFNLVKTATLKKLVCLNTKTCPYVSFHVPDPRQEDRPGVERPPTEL

[2] = molecular target: T2, Prostaglandin G/H synthase 2 (Ovis aries, UniProt P79208); assay: In Vitro COX-1 and COX-2 Inhibitory Assay
T2 sequence (P79208 whole entry): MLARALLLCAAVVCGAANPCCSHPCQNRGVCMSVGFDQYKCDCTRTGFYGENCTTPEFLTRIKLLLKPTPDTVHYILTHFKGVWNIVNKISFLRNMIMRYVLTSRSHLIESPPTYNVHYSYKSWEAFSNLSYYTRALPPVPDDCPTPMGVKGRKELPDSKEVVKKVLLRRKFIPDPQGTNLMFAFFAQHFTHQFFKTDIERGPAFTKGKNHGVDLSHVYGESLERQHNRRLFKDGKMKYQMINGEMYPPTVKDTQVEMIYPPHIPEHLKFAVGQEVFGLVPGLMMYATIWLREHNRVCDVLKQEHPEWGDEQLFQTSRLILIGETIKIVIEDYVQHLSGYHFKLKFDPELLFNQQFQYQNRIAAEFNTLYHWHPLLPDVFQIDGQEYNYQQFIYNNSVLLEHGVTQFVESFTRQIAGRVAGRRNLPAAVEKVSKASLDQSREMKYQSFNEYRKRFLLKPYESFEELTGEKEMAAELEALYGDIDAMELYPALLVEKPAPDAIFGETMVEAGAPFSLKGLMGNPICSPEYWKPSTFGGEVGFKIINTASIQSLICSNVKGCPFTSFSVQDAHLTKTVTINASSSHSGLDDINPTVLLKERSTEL

[3] = molecular target: T3, Polyunsaturated fatty acid 5-lipoxygenase (Homo sapiens, UniProt P09917); assay: In Vitro Lipoxygenase (LOX) Inhibitory Assay
T3 sequence (P09917 whole entry): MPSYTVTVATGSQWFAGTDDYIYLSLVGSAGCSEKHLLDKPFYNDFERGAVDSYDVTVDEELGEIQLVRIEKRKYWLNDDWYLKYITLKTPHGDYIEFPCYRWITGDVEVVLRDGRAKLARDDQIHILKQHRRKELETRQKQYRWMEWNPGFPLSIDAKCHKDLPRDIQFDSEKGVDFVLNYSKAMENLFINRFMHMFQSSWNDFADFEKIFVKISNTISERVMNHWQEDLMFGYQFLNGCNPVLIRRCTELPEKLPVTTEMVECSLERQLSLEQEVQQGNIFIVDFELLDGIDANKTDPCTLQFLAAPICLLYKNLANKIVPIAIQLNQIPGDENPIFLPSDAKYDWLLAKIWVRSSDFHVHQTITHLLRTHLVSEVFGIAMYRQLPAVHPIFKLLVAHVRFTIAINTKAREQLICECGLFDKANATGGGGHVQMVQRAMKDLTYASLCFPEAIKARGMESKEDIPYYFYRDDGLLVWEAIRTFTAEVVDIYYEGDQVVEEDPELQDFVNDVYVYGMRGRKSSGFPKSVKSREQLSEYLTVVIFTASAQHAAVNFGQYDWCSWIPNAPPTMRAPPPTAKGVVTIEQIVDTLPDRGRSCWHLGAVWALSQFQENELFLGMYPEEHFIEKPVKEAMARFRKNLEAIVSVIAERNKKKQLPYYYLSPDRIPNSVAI
Description: All the newly synthesized compounds were also evaluated in vitro for their ability to inhibit lipoxygenase enzyme. This was carried out using Abnova lipoxygenase inhibitor screening assay kit (Catalog No. (KA1329). Inhibitors were dissolved in DMSO and were added to the assay in a final volume of 10 μl before initiating with substrate. Three concentrations were prepared (25, 50 and 100 μM) and the concentration that produced 50% enzyme inhibition was determined according to manufacturer instructions [Plačkov et al., Free Radic. Biol. Med., 97:223-235].

IC50 [1] [µM]	IC50 [2] [µM]	IC50 [3] [µM]	SMILES
6.3	1.89	4.97	COc1ccc(/C=C2\SC(=S)N(NC(=O)c3sc4ccccc4c3Cl)C2=O)cc1 [3-Chloro-N-[5-(4-methoxybenzylidene)-4-oxo-2-thioxothiazolidin-3-yl]benzo[b]thiophene-2-carboxamide (5e)]
10.4	4.22	6.91	COc1cc(/C=C2\SC(=S)N(NC(=O)c3sc4ccccc4c3Cl)C2=O)ccc1O [3-Chloro-N-[5-(4-hydroxy-3-methoxybenzylidene)-4-oxo-2-thioxothiazolidin-3-yl]benzo [b]thiophene-2-carboxamide (5g)]
7.6	2.61	8.71	COc1ccc(-c2nn(-c3ccccc3)cc2/C=C2\SC(=S)N(NC(=O)c3sc4ccccc4c3Cl)C2=O)cc1 [3-Chloro-N-(5-{[3-(4-methoxyphenyl)-1-phenyl-1H-pyrazol-4-yl]methylene}-4-oxo-2-thioxothiazolidin-3-yl)benzo[b]thiophene-2-carboxamide (5b)]
8.7	2.43	6.87	O=C(NN1C(=O)CSC1=S)c1sc2ccccc2c1Cl [3-Chloro-N-(4-oxo-2-thioxothiazolidin-3-yl)benzo[b]thiophene-2-carboxamide (4)]
8.7	2.74	6.91	COc1ccc(-c2nn(-c3ccccc3)cc2/C=C2\SC(=S)N(NC(=O)c3cc4ccccc4o3)C2=O)cc1 [N-(5-{[3-(4-Methoxyphenyl)-1-phenyl-1H-pyrazol-4-yl]methylene}-4-oxo-2-thioxothiazolidin-3-yl)benzofuran-2-carboxamide (10b)]
–	–	5.64	Cc1ccc(Cl)c(Nc2ccccc2C(=O)O)c1Cl
12.4	4.88	9.51	O=C(NN1C(=O)/C(=C/c2cn(-c3ccccc3)nc2-c2ccc(Br)cc2)SC1=S)c1sc2ccccc2c1Cl [N-(5-{[3-(4-Bromophenyl)-1-phenyl-1H-pyrazol-4-yl]methylene}-4-oxo-2-thioxothiazolidin-3-yl)-3-chlorobenzo[b]thiophene-2-carboxamide (5c)]
12.4	4.81	9.21	O=C(NN1C(=O)/C(=C/c2cn(-c3ccccc3)nc2-c2ccccc2)SC1=S)c1cc2ccccc2o1 [N-{5-[(1,3-Diphenyl-1H-pyrazol-4-yl)methylene]-4-oxo-2-thioxothiazolidin-3-yl}benzofuran2-carboxamide (10a)]
3.4	–	–	COc1ccc(/C=C2\SC(=S)N(NC(=O)c3sc4ccccc4c3Cl)C2=O)cc1OC [3-Chloro-N-[5-(3,4-dimethoxybenzylidene)-4-oxo-2-thioxothiazolidin-3-yl]benzo [b]thiophene-2-carboxamide (5h)]
4.9	1.23	3.74	O=C(NN1C(=O)/C(=C/c2ccc(Cl)cc2)SC1=S)c1sc2ccccc2c1Cl [3-Chloro-N-[5-(4-chlorobenzylidene)-4-oxo-2-thioxothiazolidin-3-yl]benzo[b]thiophene-2-carboxamide (5f)]
5.1	1.49	3.97	O=C(NN1C(=O)/C(=C/c2cn(-c3ccccc3)nc2-c2ccccc2)SC1=S)c1sc2ccccc2c1Cl [3-Chloro-N-{5-[(1,3-diphenyl-1H-pyrazol-4-yl)methylene]-4-oxo-2-thioxothiazolidin-3-yl}benzo[b]thiophene-2-carboxamide (5a)]
–	–	6.87	Cc1ccc(-c2cc(C(F)(F)F)nn2-c2ccc(S(N)(=O)=O)cc2)cc1 [Celecoxib]
13.4	5.32	10.2	O=C(NN1C(=O)/C(=C/c2cn(-c3ccccc3)nc2-c2ccc(Br)cc2)SC1=S)c1cc2ccccc2o1 [N-(5-{[3-(4-Bromophenyl)-1-phenyl-1H-pyrazol-4-yl]methylene}-4-oxo-2-thioxothiazolidin-3-yl)benzofuran-2-carboxamide (10c)]
6.8	1.83	5.92	O=C(NN1C(=O)CSC1=S)c1cc2ccccc2o1 [N-(4-Oxo-2-thioxothiazolidin-3-yl)benzofuran-2-carboxamide (9)]
10.6	3.12	8.74	O=C(NN1C(=O)/C(=C/c2ccccc2)SC1=S)c1sc2ccccc2c1Cl [N-(5-Benzylidene-4-oxo-2-thioxothiazolidin-3-yl)-3-chlorobenzo[b]thiophene-2-carboxamide (5d)]
5.9	1.56	6.87	O=C1Nc2ccccc2/C1=C1\SC(=S)N(NC(=O)c2sc3ccccc3c2Cl)C1=O [3-Chloro-N-[4-oxo-5-(2-oxoindolin-3-ylidene)-2-thioxothiazolidin-3-yl]benzo[b]thiophene-2-carboxamide (5i)]
